# Entries after “also recorded” stand apart in the source; their conditions may differ. Where two headings read alike, the source gives them in different places. Marks after values point to notes of the source that are not given here.
# Columns and labels:
# U251 cells = test: Cytotoxicity CellTiter-Glo; assay type: cell-based, human
# PE04 cells = test: Cytotoxicity CellTiter-Glo; assay type: cell-based, human; conditions: read-out: IC50 (50% growth inhibition); PE04, Ovary; 72 hours
# A673 cells = test: Cytotoxicity CellTiter-Glo; assay type: cell-based, human
# SHEP cells = test: Cytotoxicity CellTiter-Glo; assay type: cell-based, human
# U-2 OS cells = test: Cytotoxicity CellTiter-Glo; assay type: cell-based, human
# [1] = Maximum tolerated dose study: blood chemistry test (Table 7); conditions: mouse, in vivo, iv, 5 mg/kg
# Experimental: The mice used in MTD were given standard chow devoid of added folic acid (low folate diet) (See, Leamon C P et al., J. Pharmacol. Exp. Ther. 327: 918-925). […] Therefore we also designed a MTD study in mice treated with low folate diet. Food consumption on the day before injection (Day −1) was recorded and then it was monitored every other day. […] Blood for clinical chemistry was collected if possible. Liver, kidney and bone marrow were collected. One side of each tissue (except bone marrow) will be fixed in 4-10% formalin for future histology analysis, and the rest of tissue will be cut into pieces, snap frozen, and stored at −80° C. until analysis. Blood samples for clinical chemistry were centrifuged at 8000 rpm for 10 min at 4° C. within 1 hour of collection. Plasma was collected into 1.5 mL eppendorf tubes and stored at −80° C. until analysis. The measured parameters were alanine transaminase (ALT), aspartate transaminase (AST), alkaline phosphatase (ALP), total bilirubin, glucose, blood urea nitrogen (BUN), creatinine, and electrolytes. All experiments were housed in a virus-free, temperature controlled facility on a 12-h light-dark cycle.
# SH-SY5Y cells = test: Cytotoxicity CellTiter-Glo; assay type: cell-based, human
# OVCAR2 cells = test: Cytotoxicity CellTiter-Glo; assay type: cell-based, human; conditions: read-out: IC50 (50% growth inhibition); OVCAR2, Ovary; 72 hours
# SNF539 cells = test: Cytotoxicity CellTiter-Glo; assay type: cell-based, human
# DU145 cells = test: Cytotoxicity CellTiter-Glo; assay type: cell-based, human; conditions: read-out: IC50 (50% growth inhibition); DU145, Prostate; 72 hours
# Experimental: (§1) Human cancer cell lines were purchased from UCSF Cell Culture Facility (CCF) or obtained through Material Transfer.
# (§2) The range of platinum concentrations used in the studies are 5 μM-100 μM. After 72 hours of treatment, the medium were removed and replaced with 50 μL of the media plus 50 μL of the CellTiterGlo reagent. The number of viable cells in culture will be determined based on quantitation of the ATP present, which is an indicator of the number of active cells. Concentration response graphs were generated for each compound using GraphPad Prism software. The graphs were analyzed using a curve fit for sigmoid dose-response, and IC50 values were derived. The results were expressed as mean IC50 values with the standard error of the mean.
# PC3 cells = test: Cytotoxicity CellTiter-Glo; assay type: cell-based, human; conditions: read-out: IC50 (50% growth inhibition); PC3, Prostate; 72 hours
# Experimental: as §1, §2
# HCT116 cells = test: Cytotoxicity CellTiter-Glo; assay type: cell-based, human; conditions: read-out: IC50 (50% growth inhibition); HCT116, Colon; 72 hours
# Experimental: as §1, §2
# H226 cells = test: Cytotoxicity CellTiter-Glo; assay type: cell-based, human; conditions: read-out: IC50 (50% growth inhibition); H226, Non-small cell squamous; 72 hours
# Experimental: as §1, §2
# HT29 cells = test: Cytotoxicity CellTiter-Glo; assay type: cell-based, human; conditions: read-out: IC50 (50% growth inhibition); HT29, Colon; 72 hours
# Experimental: as §1, §2
# AsPC1 cells = test: Cytotoxicity CellTiter-Glo; assay type: cell-based, human; conditions: read-out: IC50 (50% growth inhibition); AsPC1, Pancreas; 72 hours
# Experimental: as §1, §2
# SAOS-2 cells = test: Cytotoxicity CellTiter-Glo; assay type: cell-based, human; conditions: SAOS-2, Osteosarcoma
# T98G cells = test: Cytotoxicity CellTiter-Glo; assay type: cell-based, human
# SNB75 cells = test: Cytotoxicity CellTiter-Glo; assay type: cell-based, human
# Kelly cells = test: Cytotoxicity CellTiter-Glo; assay type: cell-based, human
# [2] = test system: RMS13 rhabdomyosarcoma xenografts; test: RMS13 rhabdomyosarcoma xenograft in nu/nu mice; assay type: in vivo, mouse
# Experimental: (§3) The xenograft studies were performed by subcutaneous injection of SK-N-DZ (neuroblastoma, 30×10^6 cells/animal) and RMS13 (rhabdomyosarcoma, 20×10^6 cells/animal) in right flank of the male Charles River Laboratories nu/nu mice (7-8 weeks old, weight ˜20 g). Mice were treated by intravenous tail vein injection once a week for 4 weeks. The tumor sizes and body weights were monitored twice a week. Tumor volumes were calculated according to the following formula: volume=height×[…]×length×0.5236.
# [3] = test system: SK-N-DZ neuroblastoma xenografts; test: SK-N-DZ neuroblastoma xenograft in nu/nu mice; assay type: in vivo, mouse
# Experimental: as §3
# RMS13 cells = test: Cytotoxicity CellTiter-Glo; assay type: cell-based, human; conditions: RMS13, Rhabdomyosarcoma
# PE01 cells = test: Cytotoxicity CellTiter-Glo; assay type: cell-based, human; conditions: read-out: IC50 (50% growth inhibition); PE01, Ovary; 72 hours
# A2780-CP cells = test: Cytotoxicity CellTiter-Glo; assay type: cell-based, human; conditions: read-out: IC50 (50% growth inhibition), Ovary, 72 hours
# MG-63 cells = test: Cytotoxicity CellTiter-Glo; assay type: cell-based, human; conditions: MG-63, Osteosarcoma
# A2780 cells = test: Cytotoxicity CellTiter-Glo; assay type: cell-based, human; conditions: read-out: IC50 (50% growth inhibition); A2780, Ovary; 72 hours
# A204 cells = test: Cytotoxicity CellTiter-Glo; assay type: cell-based, human; conditions: A204, Rhabdomyosarcoma
# U87MG cells = test: Cytotoxicity CellTiter-Glo; assay type: cell-based, human
# genomic DNA = test: Platinum-DNA adducts by ICP-MS in HEK293 cells; assay type: cell-based, human; conditions: 10 μM, 2 hours
# Experimental: Method to quantify platinum-DNA adducts by ICP-MS has been previously described (5,6). In brief, HEK293 cells were seeded in 6-well poly-D-lysine plate (cell density=0.5×10^6 cells/well). […] After 2 hours, the cells were washed twice with cold HBBS. The platinum content associated with genomic DNA was determined as described elsewhere. Genomic DNA was isolated from the cell pellets using Genomic DNA purification kit (Promega) and the DNA-bound platinum was determined by ICP-MS, which was normalized to total DNA content (determined by absorption spectrometry at 260 nm).
# [4] = read-out: IC50 (50% growth inhibition), Neuroblastoma, 72 hours
# [5] = read-out: IC50 (50% growth inhibition), 72 hours
# [6] = read-out: IC50 (50% growth inhibition), Brain, 72 hours
smiles,measurement,setting,value
"N.N.[Cl][Pt][Cl] [Cisplatin, cisplatin, reference compound]",IC50,"U251 cells; read-out: IC50 (50% growth inhibition), U251, Brain, 72 hours",11.2 ± 10.8 µM
same,IC50,PE04 cells,4.9 ± 2 µM
same,GI50,"A673 cells; A673, Ewing's sarcoma",400 ± 300 nM
same,IC50,"A673 cells; read-out: IC50 (50% growth inhibition), A673, Ewing's Sarcoma, 72 hours",400 ± 300 nM
same,GI50,SHEP cells; Neuroblastoma,4.4 ± 2.4 µM
same,IC50,SHEP cells; [4],4.4 ± 2.4 µM
same,GI50,U-2 OS cells; Osteosarcoma,59.3 ± 9 µM
same,IC50,"U-2 OS cells; read-out: IC50 (50% growth inhibition), Osteosarcoma, 72 hours",59.3 ± 9 µM
same,Cl,[1],102.33*
same,GI50,SH-SY5Y cells; Neuroblastoma,1000 ± 600 nM
same,IC50,SH-SY5Y cells; [4],1000 ± 600 nM
same,IC50,OVCAR2 cells,3.3 ± 1.6 µM
same,IC50,"SNF539 cells; read-out: IC50 (50% growth inhibition), SNF539, Brain, 72 hours",6.5 ± 7.2 µM
same,IC50,DU145 cells,500 ± 10 nM
same,IC50,PC3 cells,2500 ± 300 nM
same,IC50,HCT116 cells,2100 ± 300 nM
same,IC50,H226 cells,13.8 ± 2.8 µM
same,IC50,HT29 cells,2300 ± 400 nM
same,IC50,AsPC1 cells,2900 ± 30 nM
same,GI50,SAOS-2 cells,20.5 ± 9.9 µM
same,IC50,SAOS-2 cells; [5],20.5 ± 9.9 µM
same,IC50,T98G cells; [6],27.5 µM
same,IC50,"SNB75 cells; read-out: IC50 (50% growth inhibition), SNB75, Brain, 72 hours",15.4 ± 12.6 µM
same,GI50,Kelly cells; Neuroblastoma,7 ± 5 µM
same,IC50,Kelly cells; [4],7 ± 5 µM
same,tumor volume / tumor growth,"[2]; RMS13 rhabdomyosarcoma xenograft, 5 mg/kg i.v. once a week for 4 weeks",inhibited tumor growth
same,survival,"[2]; RMS13 xenograft model, 5 mpk",increase survival rate
same,tumor volume / tumor growth,"[3]; SKNDZ neuroblastoma xenograft, 5 mg/kg i.v. once a week for 4 weeks",inhibited tumor growth
same,survival,"[3]; SKNDZ xenograft model, 5 mpk, 5 mg/kg",significant difference in survival; also recorded: increase survival rate
same,GI50,RMS13 cells,2500 ± 500 nM
same,IC50,RMS13 cells; [5],2500 ± 500 nM
same,IC50,PE01 cells,600 ± 400 nM
same,IC50,A2780-CP cells,8.6 ± 2.1 µM
same,GI50,MG-63 cells,5.1 ± 2.3 µM
same,IC50,MG-63 cells; [5],5.1 ± 2.3 µM
same,IC50,A2780 cells,1200 ± 200 nM
same,GI50,A204 cells,4.6 ± 4.4 µM
same,IC50,A204 cells; [5],4.6 ± 4.4 µM
same,IC50,U87MG cells; [6],16.2 ± 12.6 µM
"CN(Cc1cnc2nc(N)nc(N)c2n1)c1ccc(C(=O)N[C@@H](CCC(=O)O)C(=O)O)cc1 [Methotrexate, methotrexate, reference compound]",platinum content associated with genomic DNA (platinum-DNA adducts),genomic DNA,did not have strong intensity (binding)
CN(Cc1cnc2nc(N)nc(N)c2n1)c1ccc(C(=O)NC(CCC(=O)O)C(=O)O)cc1.[Cl][Pt][Cl] (stereo not shown) [SM-69B],IC50,"U251 cells; read-out: IC50 ± S.D. (50% growth inhibition), U251, Brain - High grade, + 1 mM Folic Acid",18 ± 1.4 µM
same,IC50,"U251 cells; read-out: IC50 ± S.D. (50% growth inhibition), U251, Brain - High grade, two independent experiments",0.87 ± 0.13 µM
same,IC50,HeLa R1-11 (SLC19A1),109 nM
same,IC50,"SNF539 cells; read-out: IC50 ± S.D. (50% growth inhibition), SF539, Brain - High grade, + 1 mM Folic Acid",43.2 ± 12.9 µM
same,IC50,"SNF539 cells; read-out: IC50 ± S.D. (50% growth inhibition), SF539, Brain - High grade, two independent experiments",0.46 ± 0.04 µM
same,IC50,"T98G cells; read-out: IC50 ± S.D. (50% growth inhibition), Brain - High grade, + 1 mM Folic Acid",5.3 ± 1.2 µM
same,IC50,"T98G cells; read-out: IC50 ± S.D. (50% growth inhibition), Brain - High grade, two independent experiments",0.31 ± 0.05 µM
same,IC50,"SNB75 cells; read-out: IC50 ± S.D. (50% growth inhibition), SNB75, Brain - High grade, + 1 mM Folic Acid",63.3 ± 3.3 µM
same,IC50,"SNB75 cells; read-out: IC50 ± S.D. (50% growth inhibition), SNB75, Brain - High grade, two independent experiments",11.1 ± 2.1 µM
same,IC50,HeLa R1-11 (SLC46A1),702 nM
same,IC50,"U87MG cells; read-out: IC50 ± S.D. (50% growth inhibition), Brain - Low grade, + 1 mM Folic Acid",13.9 ± 11.1 µM
same,IC50,"U87MG cells; read-out: IC50 ± S.D. (50% growth inhibition), Brain - Low grade, two independent experiments",0.96 ± 0.09 µM

# From patent US10392412B2, “Platinum anticancer agents” (THE REGENTS OF THE UNIVERSITY OF CALIFORNIA, priority 2015, dated 2019)
